Reference: patent US6645501B2, “Anti-pathogen system and methods of use thereof” (Washington University, priority 1997, dated 2003)
“Also recorded” adds a separate entry of the source.

Assays:
Format in all cases: cell-based
Jurkat T-cells = experiment: Transduction of FITC-labeled synthetic peptides into Jurkat T-cells (rate and intracellular concentration versus TAT); conditions: for Intracellular Concentration / Rate Compared to TAT: FITC-labeled peptide, Jurkat T-cells; for Intracellular Concentration: at equilibrium, relative to the TAT peptide; for Rate Compared to TAT: sign relative to TAT
Method: The following artificial (i.e. synthetic) peptides were made by conventional peptide synthesis as described above. A goal of this experiment was to produce transduction domains that could transduce more effectively as judged by the intracellular concentration in transduced cells. The transduction domains were tested against a suitable control, which typically was the “natural” TAT or an Antp transduction domain. Briefly, a FITC group was synthetically attached to N-terminus of 100% of each peptide so that transduction rate and intracellular concentration of each peptide could be quantified at equilibrium. The TAT transduction domain is recognized to be alpha-helical. In each synthetic peptide sequence, an alpha-helix was modeled with varying amounts of Arg on one face. That is, a series of synthetic peptides was designed that contained varying amounts of Arg residues on one surface and substituted with Ala residues. Both Ala and Arg residues have the highest probability/energetics for maintaining an alpha-helical structure. See FIG. 7, which depicts each peptide as a helical wheel projection. The peptides are shown below in Table 2.
The synthetic peptides were transduced into Jurkat T-cells along lines described above in Example 4.

[1] = test system: Jurkat T-cells infected by HIV (strain NLHX); experiment: Killing of HIV-infected Jurkat T-cells, trypan blue exclusion and microscopy
Method: About 5×10^6 Jurkat T-cells were infected by HIV (strain NLHX; about 1×10^5 to 1×10^6 infectious virus per ml). The cells were propagated in RPMI media. Approximately 4 to 7 days after the infection, the media was removed from the plates and about 35 to 45 nanomoler of the TAT-CPP32 fusion protein was added to the cells. The cells were incubated with the fusion proteins for about 30 minutes to allow transduction into the cells. […] Subsequently, media was added back to the plates and after about 18 hours post-transduction, the cells were examined for cell killing using conventional trypan blue exclusion and microscopy.
Briefly, cells were infected and transduced as described in Example 6 above. Following the transduction, about 1 μg/ml Ritonavir was added to the cell media and allowed to incubate with the cells for about 18 hours. The cells were then assayed for cell killing by conventional trypan blue exclusion and microscopy. […]

Jurkat T cells [2] = experiment: Co-transduction of uninfected Jurkat T cells with TAT-CPP32 and TAT-Protease, survival by trypan-blue exclusionary dye microscopy
Method: To test for activation of the TAT-CPP32 by TAT-Protease, 2×10^6 Jurkat T cells were placed in 2 ml of culture (RPMI media). To these cells, various combinations of control and experimental transducible proteins were added in 50-100 nM ranges, as follows:
The cells were assayed for survival at 18 hr post-addition by trypan-blue exclusionary dye microscopy. […] Thus, activation of TAT-CPP32 requires the presence of HIV protease.

[3] = test system: Jurkat T cells infected with the NLHX strain of HIV-I; experiment: Cytotoxicity of TAT-Casp3 on HIV infected Jurkat cultures, exclusionary dye viability analysis; conditions: 1 μg/ml Ritonavir prior to 100 nM TAT-Casp3WT
Source text: To make this determination, Jurkat T cells were infected for 7-14 days with the NLHX strain of HIV-I and examined microscopically for HIV cytopathic effects. See Westervelt, P., et al., Identification of a determinant within the HIV-1 surface envelope glycoprotein critical for productive infection of cultured primary monocytes. Proc. Natl. Acad. Sci USA 88: 3097 (1991). At the start of each transduction experiment approximately 50% of the culture was HIV positive. HIV infected cultures were transduced for 16 hr with 100 nM TAT-Casp3WT or TATCasp3MUT protein and then assayed for cell viability (FIG. 13). […] In addition, we detected both the appearance of cells containing <2N DNA content and cells with condensed nuclei in TAT-Casp3 treated cells.
To determine if TAT-Casp3WT induced apoptosis was dependent on active HIV Protease in the infected cultures, HIV infected cultures were pretreated with 1 μg/ml Ritonavir prior to transduction with 100 nM TAT-Casp3WT protein (FIG. 5). […] In addition, the observed increased survival of Ritonavir treated cells is consistent with increased longevity of protease inhibitor treated HIV infected cells. See Coffin, J. M., et al. (supra).
The specific killing of HIV infected cells shown in FIG. 5 is explained in more detail as follows. Jurkat T cells were infected for 7-14 days with HIV strain NLHX, then transduced with TAT-Casp3WT (WT) or TAT-Casp3MUT (MUT) proteins for 16 hr and assayed for cell viability. […] Ctrl, control addition of PBS to cultures; abscissa, % viability of HIV positive cells in the population at start of transduction; error bars represent SD.
(§1) 1. […] See Lissy, N. A., et al. (supra). […] See Ezhevsky, S. A., et al. (supra). […] See Xiang, J., et al., (supra). […] See Xiang, J., et al., (supra). […] See Ezhevsky, S. A., et al. (supra).

HIV Protease = biological target: T1, HIV Protease (Human immunodeficiency virus type 1 group M subtype B, UniProt P04585); experiment: In vivo substrate cleavage by co-transduced TAT-HIV Pr in Jurkat T cells, immunoblot
T1 construct: PCR cloning the HIV Protease gene from HXB2R HIV strain; 6xHis (from the pTAT vector) (N); made in house; the purified protein was added to Jurkat T cells
Method: To assay for in vivo cleavage, p 16(−) Jurkat T cells were transduced with 100 nM TAT-Ap16 or control TAT-p16 protein (no HIV cleavage site) alone or in combination with 50 nM TATHIV Pr fusion protein for 5 hr and analyzed by anti-p16 immunoblot for in vivo cleavage at the HIV A proteolytic cleavage site (FIG. 10A). […] Size analysis of the cleaved TAT-A-p 16 protein was consistent with retention of the residual HIV half site present on the N′ terminus of p 16 (FIG. 10A, see lane 4 vs. 5).
Further, the TAT-Casp3MUT protein was transduced in combination with TAT-HIV Pr protein into cells (FIG. 10B).
The in vivo processing in co-transduced cells shown in FIGS. 10A and 10B is explained in more detail as follows. FIG. 10A. Cultures of p16(−) Jurkat T cells were transduced with TAT-p 16 or TAT-A-p 16 substrate proteins in combination with TATHIV Pr proteins for 5 hr and subjected to anti-p 16 immunoblot analysis. […] WCE, HepG2 whole cell lysate containing wild type endogenous p16; A-p16, cleaved TAT-A-16 product retaining the HIV half site on p16. FIG. 10B. Cultures of Jurkat T cells were transduced with TATCasp3MUT protein (TAT-“D” site-p 17 domain-“A” site-p12 domain) alone or in combination with TAT-HIV Pr (Pr) protein as indicated and immunoblotted with anti-Caspase-3 antibodies specific for the p17 domain. TAT-D-p17-A, cleaved product of TAT-Casp3 containing the N′ terminal HIV A half site.
as §1

Jurkat T cells [4] = experiment: FACS and confocal analysis of FITC-labeled TAT fusion proteins added to Jurkat T cells; conditions: FITC-labeled protein added to media of Jurkat T cells
Method: To test the ability of TAT-Casp3 proteins to transduce into cells, TAT-Casp3 proteins were conjugated to fluorescein (FITC), then added directly to the media of Jurkat T cells and analyzed by Flow Cytometry (FACS) (FIGS. 9B-C). Both TAT-Casp3WT and TAT-Casp3MUT proteins rancidly transduced into ˜100% of cells, achieving maximum intracellular concentration in less than 20 min. In addition, based on the narrow peak width before and after addition of FITC labeled proteins, individual cells within the population contain near identical intracellular concentrations of TAT-Casp3-FITC protein. […] Thus, TAT-Casp3 proteins readily transduce into 100% of all cells inca rapid and concentration-dependent fashion.
The generation and transduction of TAT fusion proteins shown in FIGS. 9A-E are explained in more detail as follows: FIG. 9A. Diagram depicting HIV cleavage site sequences and domains of TAT fusion proteins. FIGS. 9B-D. FACS kinetic analysis of fluorescein (FITC) labeled TAT-Casp3WT, TAT-Casp3MUT and TAT-HIV Pr proteins added to cells at 0, 20 and 30 min. FIG. 9E. FACS dose analysis of 3, 6, and 12 nM TAT-Casp3WT-FITC protein added to cells at I hr post-addition. Note rapid, concentration-dependent transduction of all FITC labeled protein into ˜100% of cells and near identical intracellular concentration within the population as measured by FACS peak width of control vs. transduced cells.
as §1

[5] = 50-100 nM, uninfected Jurkat T cells, 18 hr post-addition

6 (YARAARRAARA; human) [compound 6]
Intracellular Concentration (Jurkat T-cells): 5 X
Rate Compared to TAT (Jurkat T-cells): =

4 (YARAAARQARA; human) [compound 4]
Intracellular Concentration (Jurkat T-cells): 5 X
Rate Compared to TAT (Jurkat T-cells): =

8 (YAAARRRRRRR; human) [compound 8]
Intracellular Concentration (Jurkat T-cells): 5 X
Rate Compared to TAT (Jurkat T-cells): =

7 (YARRRRRRRRR; human) [compound 7]
Intracellular Concentration (Jurkat T-cells): 5 X
Rate Compared to TAT (Jurkat T-cells): =

2 (YGRKKRRQRRR; human) [compound 2]
Intracellular Concentration (Jurkat T-cells): 1 X
Rate Compared to TAT (Jurkat T-cells): =

RQIKIWFQNRRMKWKK [SEQ ID NO. 10, reference compound]
transduction rate relative to the TAT peptide (in words) (Jurkat T-cells): slower transduction rate

3 (YARKARRQARR; human) [compound 3]
Intracellular Concentration (Jurkat T-cells): 10 X
Rate Compared to TAT (Jurkat T-cells): =

1 (AKIWFQNRRMKWKKEN; human) [compound 1]
Intracellular Concentration (Jurkat T-cells): 1 X
Rate Compared to TAT (Jurkat T-cells): =

CC(C)c1nc(CN(C)C(=O)N[C@H](C(=O)N[C@@H](Cc2ccccc2)C[C@H](O)[C@H](Cc2ccccc2)NC(=O)OCc2cncs2)C(C)C)cs1 [Ritonavir, reference compound]
effect on the ability of TAT-CPP32 to kill infected cells ([1]; about 1 μg/ml Ritonavir added after transduction, about 18 hours): essentially blocked
effect of the protease inhibitor on TAT-CPP32 wild type killing (Jurkat T cells [2]; added to TAT-CPP32 wild type plus TAT-Protease experiment): loss of specific TAT-CPP32 wild type killing
effect of pretreatment on TAT-Casp3WT killing of HIV infected cells [3]: protection from TAT-Casp3WT induced apoptosis; also recorded: protects infected cells

10 (CTERQANFLGKIWP; human) [compound 10]
Intracellular Concentration (Jurkat T-cells): 1 X
Rate Compared to TAT (Jurkat T-cells): <

5 (YARAARRAARR; human) [compound 5]
Intracellular Concentration (Jurkat T-cells): 10 X
Rate Compared to TAT (Jurkat T-cells): =

B1: TAT-Dp16: TAT-p16 fusion protein containing the HIV D (p7-p1) cleavage site (protein)
chain: GRKKRRQRRRGCTERQANFLGKIWPMEPAAGSSMEPSADWLATAAARGRVEEVRALLEAGALPNAPNSYGRRPIQVMMMGSARVAELLLLHGAEPNCADPATLTRPVHDAAREGFLDTLVVLHRAGARLDVRDAWGRLPVDLAEELGHRDVARYLRAAAGGTRGSNHARIDAAEGPSDIPD
modifications: left off: small tags and cut ends
notes: TAT-p16 fusion protein containing the HIV D (p7-p1) cleavage site
preference between HIV A site and D site (HIV Protease; co-transduction with TAT-HIV Pr): HIV A site was preferentially cleaved over

B2: TAT-A-p16: HIV A (p17-p24) cleavage site inserted between the TAT and p16 domains (protein)
chain: GRKKRRQRRRGSQVSQNYPIVQNLQMEPAAGSSMEPSADWLATAAARGRVEEVRALLEAGALPNAPNSYGRRPIQVMMMGSARVAELLLLHGAEPNCADPATLTRPVHDAAREGFLDTLVVLHRAGARLDVRDAWGRLPVDLAEELGHRDVARYLRAAAGGTRGSNHARIDAAEGPSDIPD
modifications: left off: small tags and cut ends
notes: HIV A (p17-p24) cleavage site inserted between the TAT and p16 domains
cells transduced (Jurkat T cells [4]): 100%
cleavage at the HIV cleavage site when co-transduced with TAT-HIV Pr (HIV Protease; 100 nM substrate, 50 nM TAT-HIV Pr, Jurkat T cells, immunoblot): specific substrate cleavage

B3: TAT-CPP32 mutant (protein)
chain: GRKKRRQRRRGYPYDVPDYACTERQANFLGKIWPGISLDNSYKMDYPEMGLCIIINNKNFHKSTGMTSRSGTDVDAANLRETFRNLKYEVRNKNDLTREEIVELMRDVSKEDHSKRSSFVCVLLSHGEEGIIFGTNGPVDLKKITNFFRGDRCRSLTGKPKLFIIQAMRGTELDCGIETSQVSQNYPIVQNLQGVDDDMACHKIPVEADFLYAYSTAPGYYSWRNSKDGSWFIQSLCAMLKQYADKLEFMHILTRVNRKVATEFESFSFDATFHAKKQIPCIVSMLTKELYFYH
modifications: left off: small tags and cut ends
killing of HIV-infected cells ([1]; about 35 to 45 nanomoler, about 18 hours post-transduction): not capable of killing
cytotoxicity when added alone (Jurkat T cells [2]; [5]): minimal cytotoxicity
loss of viable cells when added plus TAT-Protease (Jurkat T cells [2]; [5]): not
